According to patent publication US20190262327A1, “COMBINATION OF A BACE INHIBITOR AND AN ANTIBODY OR ANTIGEN-BINDING FRAGMENT FOR THE TREATMENT OF A DISORDER ASSOCIATED WITH THE ACCUMULATION OF AMYLOID BETA” (ASTRAZENECA AB, priority 2016, published 2019):

Tested on: sAPPβ release in SH-SY5Y cells
Assay: sAPPβ Release Assay
Format: cell-based
Conditions: Homo sapiens, 17 h
Protocol: Thaw cells and seed at a conc. of around 10000 cells/well in DMEM/F-12 with Glutamax, 10% FCS and 1% non-essential amino acids to a 384-well tissue culture treated plate, […] cell susp/well. The cell plates were then incubated for 7-24 h at 37° C., 5% CO2. The cell medium was removed, followed by addition of 30 μL compound diluted in DMEM/F-12 with Glutamax, 10% FCS, 1% non-essential amino acids and 1% PeSt to a final conc. of 1% DMSO. […] Meso Scale Discovery (MSD) plates were used for the detection of sAPPβ release. MSD sAPPβ plates were blocked in 1% BSA in Tris wash buffer (40 μL/well) for 1 h on shake at r.t. and washed 1 time in Tris wash buffer (40 μL/well). 20 μL of medium was transferred to the pre-blocked and washed MSD sAPPβ microplates, and the cell plates were further used in an ATP assay to measure cytotoxicity. The MSD plates were incubated with shaking at r.t. for 2 h and the media discarded. 10 μL detection antibody was added (1 nM) per well followed by incubation with shaking at r.t. for 2 h and then discarded. 40 μL Read Buffer was added per well and the plates were read in a SECTOR Imager.

Q: With `CC#Cc1cncc(-c2ccc3c(c2)[C@@]2(N=C(C)C(N)=N2)[C@]2(CC[C@H](OC)CC2)C3)c1` [(1r,1′R,4R)-4-methoxy-5″-methyl-6′-[5-(prop-1-yn-1-yl)pyridin-3-yl]-3′H-dispiro[cyclohexane-1,2′-indene-1′2″-imidazol]-4″-amine] as the compound, how does the IC50 read?
A: 100 pM
